Consider six compounds from paper PMC3355094 (PLoS Pathogens, 2012).

Where only a bound is given, the exact number is not on record here.

In assay [1] the target is WBA II. In kind it is binding. The following applies: read-out: KD [μmol]; cited from earlier work.
The target of assay [2] is Cholera toxin B subunit (CTB). In kind it is binding. The following applies: read-out: KD [μmol]; cited from earlier work.
In assay [3] the target is Jacalin. In words: Literature thermodynamic binding data of lectin-carbohydrate interactions compiled in Table S6 for comparison; conditions not given. Also on record: method as in values quoted from other papers. The following applies: read-out: KD [μmol]; cited from earlier work.
The target in assay [4] is T1, L87A (Coprinopsis cinerea, UniProt B3GA02, L87A).
T1 construct: gene ccl2
T1 sequence (B3GA02 2-142 L87A limits assumed): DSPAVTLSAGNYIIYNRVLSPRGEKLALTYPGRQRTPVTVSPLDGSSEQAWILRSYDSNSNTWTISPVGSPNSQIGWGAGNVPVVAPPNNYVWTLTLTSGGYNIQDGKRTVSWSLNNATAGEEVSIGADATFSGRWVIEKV
In words: biochemical. In kind it is binding.

In assay [5] the target is T2, W94A (Coprinopsis cinerea, UniProt B3GA02, W94A).
T2 construct: gene ccl2
T2 sequence (B3GA02 2-142 W94A limits assumed): as the sequence (B3GA02 2-142 L87A limits assumed) above, with A86L, W93A counted along it
In words: biochemical. In kind it is binding.

The target of assay [6] is T3, N90A (Coprinopsis cinerea, UniProt B3GA02, N90A).
T3 construct: gene ccl2
T3 sequence (B3GA02 2-142 N90A limits assumed): as the sequence (B3GA02 2-142 L87A limits assumed) above, with A86L, N89A counted along it
In words: biochemical. In kind it is binding.

Assay [7] addresses T4, N91A (Coprinopsis cinerea, UniProt B3GA02, N91A).
T4 construct: gene ccl2
The experiment in a line: biochemical. In kind it is binding.

The target of assay [8] is T5, W78A (Coprinopsis cinerea, UniProt B3GA02, W78A).
T5 construct: gene ccl2
T5 sequence (B3GA02 2-142 W78A limits assumed): as the sequence (B3GA02 2-142 L87A limits assumed) above, with W77A, A86L counted along it
The experiment in a line: biochemical. In kind it is binding.

For assay [9], the target named is T6, Y92A (Coprinopsis cinerea, UniProt B3GA02, Y92A).
T6 construct: gene ccl2
T6 sequence (B3GA02 2-142 Y92A limits assumed): as the sequence (B3GA02 2-142 L87A limits assumed) above, with A86L, Y91A counted along it
The experiment in a line: biochemical. In kind it is binding.

The target in assay [10] is T7, V93A (Coprinopsis cinerea, UniProt B3GA02, V93A).
T7 construct: gene ccl2
T7 sequence (B3GA02 2-142 V93A limits assumed): as the sequence (B3GA02 2-142 L87A limits assumed) above, with A86L, V92A counted along it
In words: biochemical. In kind it is binding.

The target of assay [11] is T8, Y57A (Coprinopsis cinerea, UniProt B3GA02, Y57A).
T8 construct: gene ccl2
T8 sequence (B3GA02 2-142 Y57A limits assumed): as the sequence (B3GA02 2-142 L87A limits assumed) above, with Y56A, A86L counted along it
The experiment in a line: biochemical. In kind it is binding.

Assay [12] concerns the target T9, K109A (Coprinopsis cinerea, UniProt B3GA02, K109A).
T9 construct: gene ccl2
In words: biochemical. In kind it is binding.

Assay [13] concerns the target ConA. In words: Literature thermodynamic binding data of lectin-carbohydrate interactions compiled in Table S6 for comparison; conditions not given. Also on record: method as in values quoted from other papers. The settings on record: read-out: KD [μmol]; cited from earlier work.
Assay [14] deals with C. elegans bre-1(ye4). The experiment in a line: C. elegans liquid toxicity assay, feeding on recombinant E. coli. In kind it is in vivo, Caenorhabditis elegans. The following applies: bre-1(ye4) mutant, vs vector control.
The test system of assay [15] is D. melanogaster. The experiment in a line: Biotoxicity assay with purified protein added to the rearing medium. In kind it is in vivo, Drosophila melanogaster.
In assay [16] the test system is C. elegans fut-1(ok892). The experiment in a line: C. elegans liquid toxicity assay, feeding on recombinant E. coli. The following applies: fut-1(ok892) mutant. In kind it is in vivo, Caenorhabditis elegans.
Assay [17] in a line: Isothermal titration calorimetry, CCL2 wild type and variants binding to fucosylated chitobiose. How it is done:
ITC experiments were performed on a VP-ITC instrument (MicroCal). The calorimeter was calibrated according to the manufacturer's instructions. Protein and carbohydrate samples were dialyzed against NMR buffer at room temperature using a 3.5 kDa membrane (Spectra/Por) and Micro DispoDialyzer (100 Da cutoff; Harvard Apparatus), respectively. The disaccharide Fucα1,3GlcNAc-OMe was not dialyzed but dissolved in NMR buffer. The sample cell (1.4 mL) was loaded with 70 µM protein; carbohydrate concentration in the syringe was 2–4 mM. A titration experiment typically consisted of 30–50 injections, each of 3 µL volume and 6 s duration, with a 6.7 min interval between additions. Stirring rate was 307 rpm. Raw data were integrated, corrected for nonspecific heats, normalized for the molar concentration, and analyzed according to a 1∶1 binding model.

The subject of assay [18] is C. elegans fut-6(ok475)fut-1(ok892). The experiment in a line: C. elegans liquid toxicity assay, feeding on recombinant E. coli. In kind it is in vivo, Caenorhabditis elegans. The following applies: fut-6(ok475)fut-1(ok892) double mutant, vs vector control.
Assay [19] deals with A. aegypti larvae. In words: Biotoxicity assay with recombinant E. coli. In kind it is in vivo, Aedes aegypti. The settings on record: CCL2-expressing E. coli vs vector control.
For assay [20], the system named is C. elegans wildtype (N2). The experiment in a line: C. elegans liquid toxicity assay, feeding on recombinant E. coli. In kind it is in vivo, Caenorhabditis elegans.
Assay [21] has as its system C. elegans fut-1(ok892). In words: CCL2 nematotoxicity assay in solid media. In kind it is in vivo, Caenorhabditis elegans.
The test system of assay [22] is A. castellanii. In words: Biotoxicity assay with recombinant E. coli. The following applies: CCL2-expressing E. coli vs vector control. In kind it is in vivo, Acanthamoeba castellanii.
Setting [23] is: purified CCL2, relative to the control (BSA).
The mark [24] stands for this setting: ITC, 299K, protein binding to GlcNAcβ1,4[Fucα1,3]GlcNAcβ1-sp.
Where [25] appears, read: ITC, 299K, protein binding to GlcNAcβ1,4[Fucα1,3]GlcNAcβ1-sp, listed as Wild type.
[26] abbreviates: Table S6, ligand GlcNAc1,4[Fuc1,3]GlcNAc-O-spacer, This study.

T9 sequence (B3GA02 2-142 K109A limits assumed): as the sequence (B3GA02 2-142 L87A limits assumed) above, with A86L, K108A counted along it
T4 sequence (B3GA02 2-142 N91A limits assumed): as the sequence (B3GA02 2-142 L87A limits assumed) above, with A86L, N90A counted along it

Consider `CO[C@@H]1O[C@H](CO)[C@@H](O[C@@H]2O[C@H](CO)[C@H](O)[C@H](O)[C@H]2O[C@@H]2O[C@@H](C)[C@@H](O)[C@@H](O)[C@@H]2O)[C@H](O)[C@H]1NC(C)=O` [Fuc1,2Gal1,4GlcNAcOMe, Fucα1,2Galβ1,4GlcNAc methyl glycoside], for which, in assay [1], the Kd was 3.2 µM.

Consider `CC(=O)N[C@H]1[C@H](O[C@@H]2[C@H](O[C@]3(C(=O)O)C[C@H](O)[C@@H](NC(C)=O)[C@H]([C@H](O)[C@H](O)CO)O3)[C@@H](O)[C@H](O[C@H]3[C@H](O)[C@@H](O)C(O)O[C@@H]3CO)O[C@@H]2CO)O[C@H](CO)[C@H](O)[C@@H]1O[C@@H]1O[C@H](CO)[C@H](O)[C@H](O)[C@H]1O` (stereo partly drawn) [GM1os, GM1 ganglioside oligosaccharide], for which the Kd in assay [2] was 0.043 µM.

With `CO[C@H]1O[C@H](CO)[C@H](O)[C@H](O)[C@H]1O` [GalOMe, methyl galactopyranoside], the Kd in assay [3] was 58 µM.

On to `CC(=O)N[C@H]1[C@H](O[C@H]2[C@H](O[C@@H]3O[C@@H](C)[C@@H](O)[C@@H](O)[C@@H]3O)[C@@H](NC(C)=O)[C@H](OCCCCCC(=O)O)O[C@@H]2CO)O[C@H](CO)[C@@H](O)[C@@H]1O` [GlcNAcβ1,4[Fucα1,3]GlcNAcβ1-sp, fucosylated chitobiose, GlcNAcβ1,4[Fucα1,3]GlcNAcβ-O(CH2)5COOH], for which the Kd in assay [4] is 26.3 µM; in [5], 310 µM; in [6] it was 6.7 µM; in assay [7] it was 0.18 µM; in assay [8], 62.9 µM; in assay [9], more than 500 µM. Further, the Kd in assay [10] came out at 27.2 µM; in assay [11] it was 10.9 µM; in assay [12], 1.5 µM.

For `CO[C@H]1O[C@H](CO[C@H]2O[C@H](CO)[C@@H](O)[C@H](O)[C@@H]2O)[C@@H](O)[C@H](O[C@H]2O[C@H](CO)[C@@H](O)[C@H](O)[C@@H]2O)[C@@H]1O` [Man1,6[Man1,3]ManOMe, Manα1,6[Manα1,3]Man methyl glycoside], the Kd in [13] was 2 µM.

With “CCL2: novel fruiting body lectin from the ink cap mushroom Coprinopsis cinerea, recombinant, monomeric β-trefoil”, the “susceptibility to CCL2-mediated toxicity” value in assay [14] was “not and completely resistant”. The “development of pupae and flies vs control” value in [15] (purified CCL2, BSA control) was “significantly different from the control”. For the same compound, in assay [15] (setting [23]), the “delay in development of flies” value is 10 fold and the “delay in development of pupae” value amounted to 4 fold. Besides, the “larvae reaching L4 stage” value in assay [16] (after 48 hours) is “half”. The “susceptibility to CCL2-mediated toxicity” value in assay [16] (vs vector control) is reported as “partially resistant”. Moreover, in assay [17] (setting [24]), the affinity, expressed as Kd, was 1.4 µM; the ΔH is -12 kcal/mol; the “−TΔS” value stood at 3.82 kcal/mol. In assay [17] (setting [25]), the ΔH is -11.9 kcal/mol and the “−TΔS” value came out at 3.9 kcal/mol. Moreover, in assay [17] (setting [26]), the “–TΔS” value is 3.9 kcal/mol and the “–ΔH” value came out at 11.9 kcal/mol. Further, the “susceptibility to CCL2-mediated toxicity” value in [18] was “not and completely resistant”. In assay [19], the toxicity result was “No significant differences”. Besides, the “reduction of development of L1 larvae” value in assay [20] (30% of CCL2-expressing E. coli among the fed bacteria) is listed as “more than 95%”. For the same compound, in [20] (N2 fed E. coli expressing the lectin, L4 stage after 48 h), the “toxicity: development of L1 larvae vs vector control” value is given as “stopped the development of all wildtype (N2) L1 larvae”. In assay [21], the “additional time required to reach L4” value is given as “at least 24 h” and the “resistance to CCL2” value is recorded as “partial resistance”. Further, in assay [22], the toxicity result was “No significant differences”.
